Laboratory results: patent publication US20250134890A1, “ANTIMALARIAL HEXAHYDROPYRIMIDINE ANALOGUES” (UCB BIOPHARMA SRL, priority 2022, published 2025)
Where a name gives a salt, the structure may show the parent alone.

Test system: Plasmodium falciparum: 3D7 strain
Assay: P. falciparum 3D7 asexual blood stage assay (SYBR green readout)
Format: cell-based
Settings: P. falciparum 3D7 in human erythrocytes, 72 h incubation, SYBR green fluorescence; hydrochloride
Method in brief: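 3D7-infected erythrocytes (5% haematocrit, 0.5% parasitaemia) were exposed 72 h at 37 °C under 1% O2/3% CO2 to a 20-point titration (50,000-15 nM final, 0.5% DMSO). Parasite DNA was read by SYBR green fluorescence after overnight lysis. Percent inhibition was set against mefloquine and DMSO, and EC50 came from a biphasic two-site fit.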

Structure (SMILES) | IC50 [nM]
C[C@H]1C[C@@H](N2C(=N)N[C@](C)(c3cccc(-c4cccc(C(O)C(F)F)c4)c3Cl)CC2=O)CCO1 (single isomer, unassigned) [Example 26, (6S)-6-(2-Chloro-3-{3-[(1S*)-2,2-difluoro-1-hydroxyethyl]phenyl}-phenyl)-2-imino-6-methyl-3-[(2S,4S)-2-methyltetrahydropyran-4-yl]hexahydropyrimidin-4-one hydrochloride] | 55

Same assay, conditions: Plasmodium falciparum, 3D7, Erythrocyte, 72 h, P. falciparum 3D7 in human erythrocytes, 72 h incubation, SYBR green fluorescence

Structure (SMILES) | IC50 [nM]
C[C@@H]1C[C@H](N2C(=N)N[C@](C)(c3cccc(-c4ccc(F)cc4F)c3Cl)CC2=O)CCN1C (relative stereo) [Example 107, (6S)-6-[2-Chloro-3-(2,4-difluoro-phenyl)phenyl]-3-[(2R*,4R*)-1,2-dimethylpiperidin-4-yl]-2-imino-6-methylhexahydropyrimidin-4-one hydrochloride] | 228
C[C@@]1(c2cccc(-c3cn(-c4cccc(F)c4)nn3)c2Cl)CC(=O)N([C@H]2CCC(F)(F)[C@@H](O)C2)C(=N)N1 (relative stereo) [Example 108, (6S)-6-{2-Chloro-3-[1-(3-fluoro-phenyl)-1,2,3-triazol-4-yl]phenyl}-3-[(1S*,3S*)-4,4-difluoro-3-hydroxycyclohexyl]-2-imino-6-methylhexahydropyrimidin-4-one hydrochloride] | 325
C[C@H]1C[C@@H](N2C(=N)N[C@](C)(c3cccc(-c4cn(-c5cc(F)c(F)cc5F)nn4)c3Cl)CC2=O)CC[C@H]1O (relative stereo) [Example 112, (6S)-6-{2-Chloro-3-[1-(2,4,5-trifluorophenyl)-1,2,3-triazol-4-yl]-phenyl}-3-[(1S*,3S*,4R*)-4-hydroxy-3-methylcyclohexyl]-2-imino-6-methylhexahydro-pyrimidin-4-one hydrochloride] | 132
C[C@@H]1C[C@H](N2C(=N)N[C@](C)(c3cccc(-c4cn(-c5cc(F)c(F)cc5F)nn4)c3Cl)CC2=O)CC[C@@H]1O (relative stereo) [Example 113, (6S)-6-{2-Chloro-3-[1-(2,4,5-trifluorophenyl)-1,2,3-triazol-4-yl]-phenyl}-3-[(1R*,3R*,4S*)-4-hydroxy-3-methylcyclohexyl]-2-imino-6-methylhexahydro-pyrimidin-4-one hydrochloride] | 540
C[C@H]1C[C@@H](N2C(=N)N[C@](C)(c3cccc(-c4cccc(C(O)C(F)F)c4)c3Cl)CC2=O)CCO1 (single isomer, unassigned) [Example 25, (6S)-6-(2-Chloro-3-{3-[(1R*)-2,2-difluoro-1-hydroxyethyl]phenyl}-phenyl)-2-imino-6-methyl-3-[(2S,4S)-2-methyltetrahydropyran-4-yl]hexahydropyrimidin-4-one hydrochloride] | 38
C[C@H]1C[C@@H](N2C(=N)N[C@](C)(c3cccc(-c4cccc(C(O)C(F)(F)F)c4)c3Cl)CC2=O)CCO1 (single isomer, unassigned) [Example 28, (6S)-6-(2-Chloro-3-{3-[(1S*)-2,2,2-trifluoro-1-hydroxyethyl]phenyl}-phenyl)-2-imino-6-methyl-3-[(2S,4S)-2-methyltetrahydropyran-4-yl]hexahydropyrimidin-4-one hydrochloride] | 26
C[C@@]1(c2cccc(-c3cccc(Cl)c3)c2Cl)CC(=O)N(C(CO)C2CC2)C(=N)N1 (single isomer, unassigned) [Example 94, (6S)-6-[2-Chloro-3-(3-chloro-phenyl)phenyl]-3-[(1R*)-1-cyclopropyl-2-hydroxyethyl]-2-imino-6-methylhexahydro-pyrimidin-4-one hydrochloride] | 88
C[C@H]1C[C@@H](N2C(=N)N[C@](C)(c3cccc(-c4cncc(Cl)c4)c3Cl)CC2=O)CCO1 [Example 1, (6S)-6-[2-Chloro-3-(5-chloro-pyridin-3-yl)phenyl]-2-imino-6-methyl-3-[(2S,4S)-2-methyl-tetrahydropyran-4-yl]hexahydro-pyrimidin-4-one hydrochloride] | 22
C[C@H]1C[C@@H](N2C(=N)N[C@](C)(c3cccc(-c4ccc(OC(F)(F)F)cc4Cl)c3Cl)CC2=O)CCO1 [Example 2, (6S)-6-{2-Chloro-3-[2-chloro-4-(trifluoromethoxy)phenyl]phenyl}-2-imino-6-methyl-3-[(2S,4S)-2-methyltetrahydropyran-4-yl]-hexahydropyrimidin-4-one hydrochloride] | 78
C[C@H]1C[C@@H](N2C(=N)N[C@](C)(c3cccc(-c4cccc(S(C)(=O)=O)c4)c3Cl)CC2=O)CCO1 [Example 4, (6S)-6-[2-Chloro-3-(3-methyl-sulfonylphenyl)phenyl]-2-imino-6-methyl-3-[(2S,4S)-2-methyl-tetrahydropyran-4-yl]hexahydro-pyrimidin-4-one hydrochloride] | 17
C[C@H]1C[C@@H](N2C(=N)N[C@](C)(c3cccc(-c4cccc(P(C)(C)=O)c4)c3Cl)CC2=O)CCO1 [Example 5, (6S)-6-[2-Chloro-3-(3-dimethyl-phosphorylphenyl)phenyl]-2-imino-6-methyl-3-[(2S,4S)-2-methyl-tetrahydropyran-4-yl]hexahydro-pyrimidin-4-one hydrochloride] | 101
C[C@H]1C[C@@H](N2C(=N)N[C@](C)(c3cccc(-c4ccc5ncn(CC(F)(F)F)c5c4)c3Cl)CC2=O)CCO1 [Example 6, (6S)-6-{2-Chloro-3-[3-(2,2,2-trifluoroethyl)benzimidazol-5-yl]-phenyl}-2-imino-6-methyl-3-[(2S,4S)-2-methyltetrahydropyran-4-yl]hexahydropyrimidin-4-one hydrochloride] | 26
C[C@H]1C[C@@H](N2C(=N)N[C@](C)(c3cccc(-c4cccc(NS(C)(=O)=O)c4)c3Cl)CC2=O)CCC1(F)F [Example 13, N-[3-(2-Chloro-3-{(4S)-1-[(1S,3S)-4,4-difluoro-3-methylcyclohexyl]-2-imino-4-methyl-6-oxohexahydro-pyrimidin-4-yl}phenyl)phenyl]-methanesulfonamide trifluoroacetic acid salt] | 10
C[C@H]1C[C@@H](N2C(=N)N[C@](C)(c3cccc(-c4ccc(NS(C)(=O)=O)cc4)c3Cl)CC2=O)CCC1(F)F [Example 14, N-[4-(2-Chloro-3-{(4S)-1-[(1S,3S)-4,4-difluoro-3-methylcyclohexyl]-2-imino-4-methyl-6-oxohexahydro-pyrimidin-4-yl}phenyl)phenyl]-methanesulfonamide trifluoroacetic acid salt] | 97
C[C@H]1C[C@@H](N2C(=N)N[C@](C)(c3cccc(-c4ccc(Cl)cc4F)c3Cl)CC2=O)CCO1 [Example 15, (6S)-6-[2-Chloro-3-(4-chloro-2-fluorophenyl)phenyl]-2-imino-6-methyl-3-[(2S,4S)-2-methyl-tetrahydropyran-4-yl]hexahydro-pyrimidin-4-one trifluoroacetic acid salt] | 142
C[C@H]1C[C@@H](N2C(=N)N[C@](C)(c3cccc(-c4ccc(Cl)cc4Cl)c3Cl)CC2=O)CCO1 [Example 16, (6S)-6-[2-Chloro-3-(2,4-dichloro-phenyl)phenyl]-2-imino-6-methyl-3-[(2S,4S)-2-methyltetrahydro-pyran-4-yl]hexahydropyrimidin-4-one trifluoroacetic acid salt] | 66
C[C@H]1C[C@@H](N2C(=N)N[C@](C)(c3cccc(-c4cccc(Cl)c4)c3Cl)CC2=O)CCO1 [Example 17, (6S)-6-[2-Chloro-3-(3-chloro-phenyl)phenyl]-2-imino-6-methyl-3-[(2S,4S)-2-methyltetrahydro-pyran-4-yl]hexahydropyrimidin-4-one trifluoroacetic acid salt] | 92
C[C@H]1C[C@@H](N2C(=N)N[C@](C)(c3cccc(-c4ccc(N=S(C)(C)=O)cc4F)c3Cl)CC2=O)CCC1(F)F [Example 18, (6S)-6-[2-Chloro-3-(4-{[(dimethyl)-(oxo)-λ^6-sulfanylidene]amino}-2-fluorophenyl)phenyl]-3-[(1S,3S)-4,4-difluoro-3-methylcyclohexyl]-2-imino-6-methylhexahydro-pyrimidin-4-one hydrochloride] | 292
C[C@H]1C[C@@H](N2C(=N)N[C@](C)(c3cccc(-c4ccc(P(C)(C)=O)cc4F)c3Cl)CC2=O)CCC1(F)F [Example 19, (6S)-6-[2-Chloro-3-(4-dimethyl-phosphoryl-2-fluorophenyl)-phenyl]-3-[(1S,3S)-4,4-difluoro-3-methylcyclohexyl]-2-imino-6-methylhexahydropyrimidin-4-one hydrochloride] | 386
C[C@H]1C[C@@H](N2C(=N)N[C@](C)(c3cccc(-c4cccc(N=S(C)(C)=O)c4)c3Cl)CC2=O)CCC1(F)F [Example 20, (6S)-6-[2-Chloro-3-(3-{[(dimethyl)-(oxo)-λ^6-sulfanylidene]amino}-phenyl)phenyl]-3-[(1S,3S)-4,4-difluoro-3-methylcyclohexyl]-2-imino-6-methylhexahydro-pyrimidin-4-one hydrochloride] | 88

Same assay, conditions: Plasmodium falciparum, Erythrocyte; P. falciparum 3D7 in human erythrocytes, 72 h incubation, SYBR green fluorescence; read-out: IC50

IC50 [nM] | Structure (SMILES)
657 | CN(C)[C@H]1C[C@H](N2C(=N)N[C@](C)(c3cccc(-c4ccc(F)cc4F)c3Cl)CC2=O)C1 (single isomer, unassigned; isomer 1) [Example 88]
7950 | CN(C)[C@H]1C[C@@H](N2C(=N)N[C@](C)(c3cccc(-c4ccc(F)cc4F)c3Cl)CC2=O)C1 (single isomer, unassigned; isomer 2) [Example 89]
90 | C[C@H]1C[C@@H](N2C(=N)N[C@](C)(c3cccc(-c4cccc(N=S(C)(C)=O)c4)c3Cl)CC2=O)CCO1 [Example 3, (6S)-6-[2-Chloro-3-(3-{[(dimethyl)-(oxo)-26-sulfanylidene]amino}-phenyl)phenyl]-2-imino-6-methyl-3-[(2S,4S)-2-methyltetrahydro-pyran-4-yl]hexahydropyrimidin-4-one hydrochloride]
